{"source": "patent US11752111B2", "about": "“Use of cannabidivarin in the treatment of autism spectrum disorder, associated disorders and schizophrenia” (GW Research Limited, priority 2016, dated 2023)", "key": {"VPA-exposed rats": {"tested_on": "VPA-exposed rats", "assay": "Sociability and preference for social novelty, 3-chamber apparatus, prenatal VPA model", "assay_type": "in vivo, rat", "experimental": "Pregnant Sprague-Dawley rats (Charles River, Calco, Italy), received a single intraperitoneal injection of 500 mg/kg sodium valproate on the 12.5 day after conception, and control females were injected with physiological saline at the same time. Sodium valproate (Sigma Aldrich, Milan, IT) was dissolved in saline at a concentration of 250 mg/ml.\nCBDV was dissolved in ethanol, cremophor and saline (1:1:18). Symptomatic treatment with CBDV at doses of 0.2, 2, 20, and 100 mg/kg/day i.p. was performed starting from PND 34 (early adolescence) till 56 (early adulthood), both in male and female offspring of dams injected with VPA 500 mg/kg (or vehicle) on day 12.5 after conception. At PND 56, a series of behavioural tests was performed in order to assess the effect of chronic CBDV on sociability, social novelty, short-term memory, locomotion and stereotyped/repetitive behaviours.\nSociability and preference for social novelty: These behaviours were investigated in a 3-chamber apparatus which allows for the measurement of social approach and social preference. In brief, animals were placed into a novel arena (80 cm×31.5 cm) composed of three communicating chambers separated by Perspex walls with central openings allowing access to all chambers for 5 min.\nFollowing this acclimatisation period, animals were briefly confined to the central chamber while an unfamiliar rat confined in a small wire cage was placed in one of the outer chambers. An identical empty wire cage was placed in the other chamber. The unfamiliar rat was randomly assigned to either the right or left chamber of the arena. The test animal was then allowed to explore the arena/chambers for a further 5 min. Time spent engaging in investigatory behaviour with the rat was evaluated with the aid of Anymaze program (Ugo Basile, Italy) in order to examine social approach.\nTo investigate the preference for social novelty, a novel unfamiliar rat was then placed in the empty cage and the test animal was then allowed to explore the arena/chambers for a further 5 min. Time spent engaging in investigatory behaviour with the novel unfamiliar rat was evaluated with the aid of Anymaze program (Ugo Basile, Italy) in order to examine preference for social novelty."}, "PCP-treated rats": {"tested_on": "PCP-treated rats", "assay": "Novel object recognition test, sub-chronic PCP model of schizophrenia", "assay_type": "in vivo, rat", "experimental": "Female hooded-Lister rats were used for this experiment. Rats were housed in groups of 5 under standard laboratory conditions under a 12 hr light: dark cycle, lights on at 0700 hr. Testing was carried out in the light phase.\nRats were randomly assigned to two treatment groups and treated with vehicle, n=20 (distilled water, i.p.) or Phencyclidine hydrochloride (PCP), n=100 (2 mg/kg, i.p. twice daily for 7-days). PCP was dissolved in distilled water. This was followed by a 7-day wash out period before the rats were tested following acute treatment with CBDV, risperidone or vehicle.\nRisperidone (0.1 mg/kg) was dissolved in a minimum volume of acetic acid, made up to volume with distilled water and pH adjusted to 6 with 0.1M NaOH and administered via the i.p. route in a volume of 1 ml/kg, 60 min prior to testing.\nCBDV at 2, 10 or 20 mg/kg was dissolved in 2:1:17 (Ethanol:Cremofor:Saline 0.9%) and administered via the i.p. route in a volume of 5 ml/kg, 60 min prior to testing.\nRats were allowed to habituate to the empty test box and the behavioural test room environment for 1h on day 1. Prior to behavioural testing on day 2 rats are given a further 3 min habituation.\nFollowing the 3 min habituation period, the rats are given two 3 min trials (T1 and T2) which are separated by a 1 min inter-trial interval in the home cage during which the objects are changed. Behaviour in all trials was recorded on video for subsequent blind scoring.\nIn this trial, the animals are allowed to explore two identical objects (A1 and A2) for 3 min.\nIn this trial, the animals explore a familiar object (A) from T1 and a novel object (B) for 3 min. The familiar object presented during T2 is a duplicate of the object presented in T1 in order to avoid any olfactory trails.\nThe object exploration is defined by animals licking, sniffing or touching the object with the forepaws whilst sniffing, but not leaning against, turning around, standing or sitting on the object. The exploration time (s) of each object (A, B, familiar and novel) in each trial are recorded using two stopwatches and the following factors are calculated:\nDiscrimination index (DI), which is calculated as shown below: […]"}, "MeCP2 KO mice": {"tested_on": "MeCP2 KO mice", "assay": "Symptom scoring in Rett syndrome model", "assay_type": "in vivo, mouse", "experimental": "CBDV was administered daily at the dose of 2, 20 and 200 mg/kg i.p. starting from PND 28 and the following signs were scored every other day: hindlimb clasping (indication of motor imbalance), tremor, gait (measure of coordination), breathing, mobility and general condition.\nStarting from PND 28, mice received a daily intraperitoneal injection of CBDV (or vehicle) at the dose of 2, 20 and 200 mg/kg. Animals were then scored every other day to evaluate the effect of CBDV treatment on motor symptoms (hindlimb clasping, gait, mobility) as well as neurological signs and general conditions (breathing abnormalities, tremors and general condition) present in MeCP2 knockout (KO) mice.\nEach of the six symptoms was scored from 0 to 2 (0 corresponds to the symptom being absent or the same as in the wild type (WT) animal; 1 when the symptom was present; 2 when the symptom was severe).\nMobility: the mouse is observed when placed on bench, then when handled gently. 0=as WT. 1=reduced movement when compared with WT: extended freezing period when first placed on bench and longer periods spent immobile. 2=no spontaneous movement when placed on the bench; mouse can move in response to a gentle prod or a food pellet placed nearby.\nGait: 0=as WT. 1=hind legs are spread wider than WT when walking or running with reduced pelvic elevation, resulting in a ‘waddling’ gait. 2=more severe abnormalities: tremor when feet are lifted, walks backward or ‘bunny hops’ by lifting both rear feet at once.\nHindlimb clasping: mouse observed when suspend by holding base of the tail. 0=legs splayed outward. 1=hindlimbs are drawn toward each other (without touching) or one leg is drawn into the body. 2=both legs are pulled in tightly, either touching each other or touching the body.\nTremor: mouse observed while standing on the flat palm of the hand. 0=no tremor. 1=intermittent mild tremor. 2=continuous tremor or intermittent violent tremor.\nBreathing: movement of flanks observed while animal is standing still. 0=normal breathing. 1=periods of regular breathing interspersed with short periods of more rapid breathing or with pauses in breathing. 2=very irregular breathing-gasping or panting.\nGeneral condition: mouse observed for indicators of general well-being such as coat condition, eyes and body stance. 0=clean shiny coat, clear eyes, and normal stance. 1=eyes dull, coat dull/un-groomed, and somewhat hunched stance. 2=eyes crusted or narrowed, piloerection, and hunched posture."}}, "data": [{"smiles": "C=C(C)[C@@H]1CCC(C)=C[C@H]1c1c(O)cc(CCC)cc1O", "note": "[CBDV, Cannabidivarin]", "values": [{"measurement": "restoration of social novelty preference (FIG. 1A)", "setting": "VPA-exposed rats; CBDV 20 mg/kg/day i.p. PND 34-56, VPA offspring, p<0.001 in males, p<0.01 in females", "result": "statistically significant effect"}, {"measurement": "reduction of preference index compared to controls", "setting": "VPA-exposed rats; VPA-CBDV animals, VPA alone about 48%", "result": "about 13%"}, {"measurement": "impairment in sociability (FIG. 1B)", "setting": "VPA-exposed rats; all doses (0.2, 2, 20, 100 mg/kg/day i.p.), VPA rats", "result": "significantly reduced the impairment in sociability"}, {"measurement": "deficit in social preference (FIG. 1C), time exploring novel vs familiar rat", "setting": "VPA-exposed rats; doses of 20 mg/kg and 100 mg/kg, VPA rats", "result": "reversed the deficit in social preference"}, {"measurement": "discrimination index (DI) (FIG. 17)", "setting": "PCP-treated rats; 10 and 20 mg/kg, PCP rats", "result": "statistically significant increase in the DI"}, {"measurement": "time spent investigating two identical objects in Trial 1 (FIG. 16A)", "setting": "PCP-treated rats; CBDV 2, 10 or 20 mg/kg i.p. 60 min prior to testing", "result": "no real preference"}, {"measurement": "discrimination between familiar and novel objects, Trial 2 (FIG. 16B)", "setting": "PCP-treated rats; CBDV 10 and 20 mg/kg i.p., PCP treated rats", "result": "reverse the cognitive dysfunction"}, {"measurement": "total symptom score (FIG. 8)", "setting": "MeCP2 KO mice; 2 mg/kg, PND 45, 47, 49, 55, 56, 57, 58, 60 and 64, KO mice", "result": "significantly improved total symptom score at every time point"}, {"measurement": "breathing score (FIG. 6B)", "setting": "MeCP2 KO mice; 2 mg/kg, PND 56 to 60, KO mice", "result": "significantly improve breathing"}, {"measurement": "tremor score (FIG. 6A)", "setting": "MeCP2 KO mice; 2 mg/kg, PND 63, KO mice", "result": "still protective"}, {"measurement": "general conditions (coat and eyes) (FIG. 7A)", "setting": "MeCP2 KO mice; 20 mg/kg, KO mice", "result": "significantly effective only at the earlier time point (PND 52)"}, {"measurement": "breathing score (FIG. 6B)", "setting": "MeCP2 KO mice; 20 mg/kg, PND 57, KO mice", "result": "significant effect"}, {"measurement": "hindlimb clasping score (FIG. 6C)", "setting": "MeCP2 KO mice; 200 mg/kg, KO mice", "result": "did not significantly affect"}, {"measurement": "total symptom score (FIG. 8)", "setting": "MeCP2 KO mice; 200 mg/kg, KO mice", "result": "exerted beneficial effect at a later time point (PND 47) and its protective effect was evident until PND 58"}, {"measurement": "gait score (FIG. 6D)", "setting": "MeCP2 KO mice; 200 mg/kg, PND 53 to 57, KO mice", "result": "significantly improved gait"}, {"measurement": "tremor score (FIG. 6A)", "setting": "MeCP2 KO mice; 200 mg/kg, PND 55 and 63, KO mice", "result": "still able to reduce tremors"}, {"measurement": "breathing score (FIG. 6B)", "setting": "MeCP2 KO mice; 200 mg/kg, PND 57 and 60, KO mice", "result": "effective"}, {"measurement": "general conditions (coat and eyes) (FIG. 7A)", "setting": "MeCP2 KO mice; 2 and 200 mg/kg, PND 52-64, KO mice", "result": "significantly improved"}, {"measurement": "mobility score (FIG. 7B)", "setting": "MeCP2 KO mice; KO mice", "result": "reached statistical significance only at PND 64"}, {"measurement": "total symptom score (FIG. 8)", "setting": "MeCP2 KO mice; all three doses, KO mice vs KO-vehicle", "result": "delay and attenuate the appearance of the phenotype"}, {"measurement": "tremor score (FIG. 6A)", "setting": "MeCP2 KO mice; all three doses, PND 45-49, KO mice", "result": "significantly delaying and reducing tremors"}, {"measurement": "hindlimb clasping score (FIG. 6C)", "setting": "MeCP2 KO mice; lower doses (2, 20 mg/kg), PND 47 and 49, KO mice", "result": "significantly attenuate hindlimb clasping"}]}]}
